According to patent publication US5348941A, “Stabilizers for fibroblast growth factors” (Merck & Co., Inc., priority 1992, dated 1994):

Tests used:
aFGF [1] = biological target: T1, aFGF (Homo sapiens, UniProt P05230); test: Thermal denaturation (Tm) of aFGF by circular dichroism; type: biochemical; conditions: for Tm of aFGF (maximum Tm induced by ligand), circular dichroism: PBS pH 7.2, excess ligand (1-3X by weight; 120 mM sodium sulfate, 10 mM tetrapolyphosphate); for Tm of aFGF, circular dichroism: 3X ligand by weight
T1 construct: The recombinant derived, 140 amino add form is the preferred form of aFGF; N-terminal methionine (MetHaFGF); made in house; host or cells: microbial cells (preferred embodiment)

aFGF [2] = biological target: T1, aFGF; test: Copper-catalyzed oxidation of aFGF thiol groups; type: biochemical; conditions: for Cu Oxidation (% SH Lost in 10 Mins): ligand 3X by weight, sodium sulfate 120 mM, tetrapolyphosphate 10 mM
Experimental: Copper-catalyzed oxidation of aFGF is carried out in the following manner. Acidic FGF (about 80 μg/ml) is incubated in a 20 mM Tris, 0.15M potassium chloride, pH 8 solution containing about 20 μM cuptic chloride for varying periods of time at room temperature. The reaction was terminated by the addition of 100 mM EDTA in the same buffer. A solution of about 0.7 ml of 0.25M Tris (about pH 8) containing about 2 mM EDTA and about 7 M GuHC1 is then added followed by about 35 μl of 4 mg/ml of DTNB (Sigma). Samples were incubated for 30 minutes, filtered through a 0.22 micron filter and the optical density measured at about 412 nm to determine sulfhydryl content, Riddles et al., Meth. Enzymol. 9:49-60 (1983). Relative standard deviation of the obtained values during time course experiments is 12%.
Acidic FGF contains three free cysteine residues at positions […], 83 and 117 in the polypeptide chain. […] It has also been shown that the copper catalyzed oxidative formation of a disulfide bond in the wild-type aFGF inactivates the protein in an in vitro mitogenic assay, Ortega et al., J. Biol. Chem. 266:5842-5846 (1991). Therefore, it was of interest to determine the extent to which heparin can stabilize aFGF against inactivation by oxidation. […] Samples contained 80 μg/ml aFGF with (a) 3X heparin by weight, (b) 0.1X heparin by weight and (c) buffer alone. As heparin was introduced and its concentration increased, the rate of copper-catalyzed oxidation decreased. For example, after 20 minutes, greater than 95% of the cysteine residues of aFGF are protected from oxidation with 3X heparin. FIG. 4B illustrates the fraction of remaining reactive thiol groups after a 10-minute incubation with cupric chloride as a function of heparin concentration.
Some aggregation of aFGF occurs under the conditions of these experiments presumably due to at least partial intermolecular disulfide formation. Thus, these measurements could simply be a measurement of the loss of solubility induced by copper association with aFGF. Several experiments, however, argue against this possibility. First, previous work has shown that at dilute protein concentration, copper does indeed catalyze oxidation of thiol groups of aFGF, Ortega et al., J. Biol. Chem. 266:5842-5846 (199 1 ). Second, as a control experiment, the copper-catalyzed oxidation of aFGF was carded out in a buffer containing 6 M GuHCl. Under these denaturing conditions, nearly 100% of the thiol groups in solution were lost after 10 minutes without visible aggregation. […] Regardless of the precise mechanism, copper addition is a distinct mechanism of inactivation compared to thermal stress.
Similar protection against oxidation experiments were carried out with other negatively charged compounds with an excess of ligand (3X by weight except for sodium sulfate at 120 mM and tetrapolyphosphate at 10 mM) added to aFGF before copper catalyzed oxidation. As shown in the second column of Table 2, all of these agents at least partially protect the cysteine residues of aFGF from oxidation.
^(b) Percentage of aFGF thiols remaining in solution after 10 min
incubation with cupric chloride. Experimental conditions are described in
FIG. 10. All samples contained ligand at 3× (by weight) except
sodium sulfate (120 mM) and tetrapolyphosphate (10 mM).

T1 sequence (P05230 16-155 limits assumed): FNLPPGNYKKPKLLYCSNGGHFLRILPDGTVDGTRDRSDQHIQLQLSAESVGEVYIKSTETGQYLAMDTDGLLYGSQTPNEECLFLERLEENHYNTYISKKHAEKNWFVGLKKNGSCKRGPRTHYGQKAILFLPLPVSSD

Tm of aFGF (maximum Tm induced by ligand), circular dichroism (aFGF [1]) [°C] | Cu Oxidation (% SH Lost in 10 Mins) (aFGF [2]) [%] | cysteine residues of aFGF protected from oxidation (aFGF [2]; 3X heparin, 20 minutes) | Compound | Cu Oxidation (% SH Lost in 10 Mins) (aFGF [2]; listed as inositol hexaphosphate) | Tm of aFGF, circular dichroism (aFGF [1]) [°C] | stabilization against copper-catalyzed oxidation (aFGF [2]; 10-minute incubation, 1/3 weight level of heparin)
66 | < 3 |  | O=P(O)(O)OP(=O)(O)OP(=O)(O)OP(=O)(O)O [Tetrapolyphosphate] |  |  | 
62 | 7 |  | dextran sulfate |  |  | 
64 | < 3 | greater than 95% | heparin [reference compound] |  | 64 | stabilization essentially complete at 1/3 weight levels of heparin
66 | < 3 |  | low molecular weight heparin [Low MW heparin, reference compound] |  |  | 

Compound | Tm of aFGF (maximum Tm induced by ligand), circular dichroism (aFGF [1]) [°C] | Cu Oxidation (% SH Lost in 10 Mins) (aFGF [2]) [%] | cysteine residues of aFGF protected from oxidation (aFGF [2]; 3X heparin, 20 minutes) | Cu Oxidation (% SH Lost in 10 Mins) (aFGF [2]; listed as inositol hexaphosphate) | Tm of aFGF, circular dichroism (aFGF [1]) [°C] | stabilization against copper-catalyzed oxidation (aFGF [2]; 10-minute incubation, 1/3 weight level of heparin)
O=P(O)(O)O[C@H]1[C@H](OP(=O)(O)O)[C@@H](OP(=O)(O)O)[C@H](OP(=O)(O)O)[C@@H](OP(=O)(O)O)[C@H]1OP(=O)(O)O [Inositol hexaphosphate, inositol hexaphosphate] | 70 | < 3 |  | less than 3% |  | 
O=S(=O)(O)OC1C(OS(=O)(=O)O)C(OS(=O)(=O)O)C(OS(=O)(=O)O)C(OS(=O)(=O)O)C1OS(=O)(=O)O (stereo not shown) [Inositol hexasulfate, inositol hexasulfate] | 66 | 22 |  |  |  | 
sulfated β-cyclodextrin | 65 | < 3 |  |  | 65 | 
